The record followed here is US20140303109A1 (priority 2010, published 2014).

Read-outs that look alike come from different tables or passages of the source.

In one data set the test system is PGE2. The experiment in a line: PGE2 immunoassay, three PC lines. The data set is classed as cell-based, human. To be noted: 24 h serum-free; CDF or CUR 1-4 μMol/L, GEM 10 nMol/L.
For data set [1], the system named is human colon cancer HCT 116 cells. Kind of data set: MTT assay, HCT 116 cell growth. The data set is classed as cell-based. The settings on record: read-out: inhibition on cell proliferation. The protocol: The concentrations were 10 μM, 20 μM, and 30 μM. After aspiration of growth medium, (3-(4,5-Dimethylthiazol-2-yl)-2,5-diphenyltetrazolium bromide (MTT; 1 mg/ml) was added to the cell cultures, followed by incubation for 3 hours at 37° C. After the cells were crystallized, the MTT was removed and dimethylsulfoxide (DMSO) was added to dissolve the metabolized MTT product. The absorbance was then measured on a Wallac Victor^3 1420 Multi-label counter at 540 nm.

Data set [2] concerns BxPC-3 pancreatic cancer cells. Kind of data set: Cell Apoptosis ELISA (histone/DNA fragments), BxPC-3. The data set is classed as cell-based, human. The settings on record: 72 h, various concentrations. The source says: A Cell Apoptosis ELISA Detection Kit (Roche, Palo Alto, Calif.) was used to determine whether the inhibition of cell growth could be due, at least partially, to the induction of apoptosis, in the BxPC-3 pancreatic cancer cells. […] After the treatment, the cytoplasmic histone/DNA fragments were extracted and bound to immobilized anti-histone antibody. Subsequently, peroxidase-conjugated anti-DNA antibody was used for the detection of immobilized histone/DNA fragments.

The subject of data set [3] is AsPC-1, AsPC1-GTR, MIAPaCa-2, and MIAPaCa-2-GTR cell lines. The experiment in a line: BD BioCoat tumor invasion assay. The data set is classed as cell-based, human. To be noted: 4 μmol/L. As to the method:
The invasive activity of the drug resistant cell lines was tested by using a BD BioCoat Tumor Invasion Assay System (BD Biosciences, Bedford, Mass.) according to the manufacturer's protocol. […] The fluorescence was read using a TECAN Microplate Reader at 530/590 nm and photographed.

Data set [4] can be described thus: Serum pharmacokinetics after single intragastric dose. The format is in vivo, mice. As to the method:
(§1) The mice were randomly divided into two groups of 18 mice apiece. […] Blood and tissue samples were harvested before initiation of treatment (0 hr) and at 1, 2, 4, 6, 8, 12, 16, and 24 hrs following the intragastric administration. At each time point, two mice were euthanized and ˜200 μL blood was collected by cardiac puncture, and tissues (liver, lung, kidney, heart, pancreas, and colon) were harvested, washed free of blood with PBS, blotted dry, weighed, and stored at −80° C. until analysis. The collected blood samples were allowed to clot, centrifuged, and then the serum was separated and stored at −80° C. until analysis.
(§2) The tissue samples were homogenized in 5 volumes of ice-cold normal saline. Aliquots of serum or tissue homogenate were spiked with ethyl acetate (containing 50 ng/ml zilueton as an internal standard) as follows: 100 μL serum/500 μL ethyl acetate and 500 μL tissue homogenate/1 ml ethyl acetate. The mixtures were vortex-mixed and centrifuged at 14,000 rpm for 5 minutes. The top layer was separated and dried under a stream of nitrogen in a water bath at about 50° C. The residue was reconstituted in 100 μL of methanol/water containing 0.45% formic acid (70:30 v/v) and then centrifuged again.
(§3) The supernatant (100 μL) was injected into the HPLC equipment, and separated on a Waters Xterra MS column (2.1×50 mm, […] i.d.) With a mobile phase consisting of methanol/water containing 0.45% formic acid (70:30 v/v) at a flow rate of 0.2 ml/min. The column effluent was monitored using a Waters Quattro Micro™ triple quadrapole mass-spectrometric detector equipped with an electrospray ionization source. (Waters Corporation, Milford, Mass.). […] The internal standard zilueton was monitored in the positive mode at the transition of m/z, 237.1→160.8. […] The within-day and between-day precision and accuracies of the assay was <15%.
Serum pharmacokinetic parameters were estimated using non-compartmental analysis with WinNonlin software version 4.2 (Pharsight Corporation, Cary, N.C.). The maximum serum concentration (Cmax) and the time of occurrence for maximum concentration (Tmax) were obtained by visual inspection of the serum concentration-time curve after drug administration. The total area under the serum concentration-time curve from time zero to the last measurable time point ([…]) was calculated using the linear and logarithmic trapezoidal method for ascending and descending serum concentrations, respectively.

For the next data set, the system named is miR-200b and miR-200c. Kind of data set: Real-time RT-PCR of miR-200b and miR-200c in PC cell lines. The format is cell-based, human. The settings on record: 72 h; BxPC-3, MIAPaCa-E, MIAPaCaM. As to the method:
The expression of miRNAs (miRNA-200a, miR-200b, and miR-21) in all three pancreatic cancer cell lines, was measured with a TaqMan MicroRNA Assay kit (Applied Biosystems, Carlsbad, Calif.) following the manufacturer's protocol. […] Real-time RT-PCR reactions were then carried out in a total volume of 25 μl reaction mixture, as described by Li, et al., id., using Smart Cycler II (Cepheid, Sunnyvale, Calif.). The data were analyzed using Ct method and were normalized by RNU6B expression in each sample.
In general terms: Real-time PCR tracks product formation cycle by cycle.

Data set [5] is described as follows: Tissue distribution after single intragastric dose. To be noted: for concentration in the colon: 250 mg/kg oral; for preferential tissue distribution: 250 mg/kg single dose, liver, lung, kidney, heart, pancreas, colon. The data set is classed as in vivo, mice. The protocol:
as §1, §2, §3

The subject of data set [6] is AsPC-1 and MIAPaCa-2 cells. The experiment in a line: Clonogenic assay, parental lines. The format is cell-based, human. The settings on record: 4 μmol/L CUR or CDF, 20 nmol/L GEM.
Data set [7] relates to miR-21, miR-200b, miR-200c. Kind of data set: RT-PCR of miR-21, miR-200b, miR-200c in MIAPaCa-2 tumors. The data set is classed as in vivo, mice. The protocol:
Therefore, the expression of miRNAs (miRNA-200b, miR-200c, and miR-21) in MIAPaCa-2 tumors, was assessed with a TaqMan MicroRNA Assay kit (Applied Biosystems, Carlsbad, Calif.) following the manufacturer's protocol. 5 ng of total RNA was reverse transcribed and real-time PCR reactions were carried as previously described.

A further data set addresses T1, cellular 26S proteasome (Homo sapiens, UniProt P20618+P28074).
T1 construct: host or cells: HCT 116 human colon cancer cells
Kind of data set: Proteasomal chymotrypsin-like activity in treated HCT 116 cells. The format is cell-based. To be noted: 24 h. The protocol: HCT 116 human colon cancer cells; human pancreatic carcinoma cell lines BxPC-3 and MIA PaCa-2, were purchased from American Type Culture Collection (Manassas, Va.) and grown in Dulbecco modified Eagle's medium supplemented with 10% fetal bovine serum (FBS), 100 units/ml of penicillin, and 100 μg/ml of streptomycin. Cells were maintained at 37° C. and 5% CO2. FBS was obtained from Tissue Culture Biologicals (Tulare, Calif.). Penicillin and streptomycin were purchased from Invitrogen Co. (Carlsbad, Calif.).
As a control, untreated cells were maintained in the solvent ethanol (E).

Setting [8] is: female, ICR-SCID, mouse, po, serum, 250 mg/kg single intragastric.
[9] abbreviates: serum, 250 mg/kg single intragastric.
The mark [10] stands for this setting: serum, as printed in text 'at 1 h'.

The term AUC(0-t) denotes exposure summed from dosing to a finite time, without extrapolation to infinity. As a reminder, the Cmax is the highest concentration seen after dosing. In general, Tmax refers to the time from dosing to the highest level. For the compound `COc1cc(/C=C/C(=O)C(=Cc2ccc(F)c(F)c2)C(=O)/C=C/c2ccc(O)c(OC)c2)ccc1O` [CDF, (1E,6E)-1,7-bis(4-hydroxy-3-methoxyphenyl)hepta-1,6-diene{4(3,4 difluorobenzaldehyde)}-3,5-dione], in the data set on PGE2, the PGE2 secretion level entry is on record as “significant reduction in PGE2 level”. For the same compound, in data set [1] (HCT-116, 10 μM, 24 h), the inhibition at 10 µM is 24%. In [1] (HCT-116, 20 μM, 24 h), the inhibition at 20 µM is 39%. Besides, in data set [1] (HCT-116, 30 μM, 24 h), the inhibition at 30 µM is 68%. Also, the “induction of apoptotic cell death” value in data set [2] is “superior to CUR”. The inhibition of invasion entry in [3] is “significant inhibition of invasion”. In data set [4] (setting [8]), the AUC(0-t) stood at 1220 ng·h/mL, the Cmax amounted to 210 ng/mL and the Tmax was 8 h. In data set [4] (serum AUClast, oral 250 mg/kg), the “increase in systemic drug level over Curcumin” value is 2.7 fold. In data set [4] (setting [9]), this compound gave a Clast of 40 ng/mL and a Tlast of 16.0 h. Further, in data set [4] (setting [10]), the AUClast was 1220 ng·h/mL. For the same compound, in the data set on miR-200b and miR-200c, the “expression of miR-200b and miR-200c” value was “much more pronounced”. Moreover, in data set [5], the “concentration in the colon” value is listed as “detectable at high concentrations in the colon” and the preferential tissue distribution result is recorded as “accumulated preferentially in the pancreas”. Further, in data set [6], the clonogenicity result was “significant reduction in clonogenicity”. Further, in [7], the “expression of MiR-21 in tumors” value is recorded as “significant reduction in the expression of MiR-21”; the “expression of miR-200b and miR-200c in tumors” value was “increased expression of both miR-200b, and miR-200c”. Further, at cellular 26S proteasome, the inhibition at 10 µM is 34%, the inhibition at 20 µM stood at 51% and the inhibition at 30 µM stood at 61%.
In the case of `COc1cc(/C=C/C(=O)CC(=O)/C=C/c2ccc(O)c(OC)c2)ccc1O` [CUR, (1E,6E)-1,7-bis(4-hydroxy-3-methoxyphenyl)hepta-1,6-diene-3,5-dione, reference compound], in the data set with PGE2, the PGE2 secretion level entry is reported as “significant reduction in PGE2 level”. In [1] (HCT-116, 24 h), the inhibition at 10 µM was found to be 24%, the inhibition at 20 µM was 53% and the inhibition at 30 µM is 49%. Moreover, the “induction of apoptotic cell death” value in [2] is “induce apoptosis”. Also, in data set [3], the inhibition of invasion result is on record as “minimal inhibition on invasion”. In [4] (setting [9]), this compound came in with an AUClast of 440 ng·h/mL and a Clast of 30 ng/mL. Further, the Tlast in [4] (serum, 250 mg/kg single intragastric, 250 mg/kg) is 8 h. Besides, the Tlast in [4] (serum, 250 mg/kg single intragastric, listed as Curcumin, 250 mg/kg) stood at 8.0 h. The same compound yielded an AUClast in [4] (setting [10]) of 0.44 µg/mL. Moreover, in the data set with miR-200b and miR-200c, the “expression of miR-200b and miR-200c” value was “increased expression of miR-200b and miR-200c”. In addition, in data set [5], the “concentration in the colon” value was “detectable at high concentrations in the colon”; the preferential tissue distribution entry was “present mainly in heart and lung tissue”. In addition, the clonogenicity result in [6] is “significant reduction in clonogenicity”. The “expression of miR-200b and miR-200c in tumors” value in [7] is reported as “minimal”. Also, on cellular 26S proteasome, the inhibition at 10 µM was 27%, the inhibition at 20 µM was 47% and the inhibition at 30 µM was 64%.
